Reference: patent US6737383B1, “Herbicidal oxadiazolidines” (priority 1999, dated 2004)

Key:
[1] = test system: rape; assay: Test B pre/postemergence rape; format: in vivo, Brassica napus
Outline: (§1)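 Herbicidal effect was estimated by eye on a ten-point control scale after plants spent twelve to sixteen days in a greenhouse following soil or foliar treatment. Foliar sprays targeted plants at one to four leaves; all doses were formulated in a non-phytotoxic solvent with surfactant.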

[2] = test system: pigweed; assay: Test B pre/postemergence pigweed; format: in vivo, Amaranthus retroflexus
Outline: as §1

[3] = test system: soybean; assay: Test B pre/postemergence soybean; format: in vivo, Glycine max
Outline: as §1

[4] = test system: bamyardgrass; assay: Test B flood test barnyardgrass; format: in vivo, Echinochloa crus-galli
Outline: (§2)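 Each value is a visual injury score relative to controls, with 10 meaning complete control and 0 no effect. Evaluation took place twelve to sixteen days after the 2-leaf-stage plants were treated and kept in the greenhouse.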

[5] = test system: sugar beet; assay: Test B pre/postemergence sugar beet; format: in vivo, Beta vulgaris
Outline: as §1

[6] = test system: cocklebur; assay: Test B pre/postemergence cocklebur; format: in vivo, Xanthium strumarium
Outline: as §1

[7] = test system: surinam grass; assay: Test B pre/postemergence surinam grass; format: in vivo, Brachiaria decumbens
Outline: as §1

[8] = test system: crabgrass; assay: Test B pre/postemergence crabgrass; format: in vivo, Digitaria sanguinalis
Outline: as §1

[9] = test system: smallflower flatsedge; assay: Test B flood test smallflower flatsedge; format: in vivo, Cyperus difformis
Outline: as §2

[10] = test system: bedstraw; assay: Test B pre/postemergence bedstraw; format: in vivo, Galium aparine
Outline: as §1

[11] = test system: velvetleaf; assay: Test B pre/postemergence velvetleaf; format: in vivo, Abutilon theophrasti
Outline: as §1

[12] = test system: purple nutsedge; assay: Test B pre/postemergence purple nutsedge; format: in vivo, Cyperus rotundus
Outline: as §1

[13] = test system: wheat; assay: Test B pre/postemergence wheat; format: in vivo, Triticum aestivum
Outline: as §1

[14] = test system: blackgrass; assay: Test B pre/postemergence blackgrass; format: in vivo, Alopecurus myosuroides
Outline: as §1

[15] = test system: corn; assay: Test B pre/postemergence corn; format: in vivo, Zea mays
Outline: as §1

[16] = test system: wild oat; assay: Test B pre/postemergence wild oat; format: in vivo, Avena fatua
Outline: as §1

[17] = Postemergence, Rate 62 g/ha, scale 0 to 10, 0 is no effect, 10 is complete control
[18] = Postemergence, Rate 250 g/ha, scale 0 to 10, 0 no effect, 10 complete control
[19] = Preemergence, Rate 62 g/ha, scale 0 to 10, 0 is no effect, 10 is complete control
[20] = Preemergence, Rate 125 g/ha, scale 0 to 10 (0 no effect, 10 complete control)
[21] = Preemergence, Rate 250 g/ha, scale of 0 to 10 where 0 is no effect and 10 is complete control
[22] = Preemergence, Rate 500 g/ha, scale 0 (no effect) to 10 (complete control)
[23] = Rate 125 g/ha, Postemergence, scale 0 to 10, 0 no effect, 10 complete control
[24] = Rate 500 g/ha, Postemergence, 0 to 10 scale (0 no effect, 10 complete control)
[25] = Rate 125 g/ha, Postemergence section (flood test species), scale 0 to 10, 0 no effect, 10 complete control
[26] = flood test, listed under Postemergence, Rate 250 g/ha, scale 0 to 10, 0 no effect, 10 complete control

Cc1ccccc1-n1c(=O)on(C(=O)N(C2=CCOCC2)C(C)C)c1=O [Compound 10]
1: Cocklebur plant response rating [6, 18] | Plant response rating, Blackgrass [14, 19]
8: Plant response rating, B. signalgrass [7, 21] | B. signalgrass plant response rating [7, 22] | Plant response rating, Blackgrass [14, 21]
0: Rape plant response rating [1, 17] | Rape plant response rating [1, 18] | Plant response rating, Rape [1, 19] | Plant response rating, Rape [1, 20] | Plant response rating, Rape [1, 21] | Rape plant response rating [1, 22] | Rape plant response rating [1, 23] | Rape plant response rating [1, 24] | Redroot pigweed plant response rating [2, 17] | Redroot pigweed plant response rating [2, 18] | Plant response rating, Redroot pigweed [2, 19] | Plant response rating, Redroot pigweed [2, 20] | Plant response rating, Redroot pigweed [2, 21] | Redroot pigweed plant response rating [2, 22] | Redroot pigweed plant response rating [2, 23] | Redroot pigweed plant response rating [2, 24] | Plant response rating, Soybean [3, 19] | Plant response rating, Soybean [3, 20] | Plant response rating, Soybean [3, 21] | Soybean plant response rating [3, 22] | Barnyardgrass plant response rating [4, 17] | Barnyardgrass plant response rating [4, 25] | Barnyardgrass plant response rating ([4]; Rate 500 g/ha, Postemergence section of Table B, 0 to 10 scale (0 no effect, 10 complete control)) | Barnyardgrass plant response rating [4, 26] | Sugarbeets plant response rating [5, 17] | Sugarbeets plant response rating [5, 18] | Plant response rating, Sugarbeets [5, 19] | Plant response rating, Sugarbeets [5, 20] | Plant response rating, Sugarbeets [5, 21] | Sugarbeets plant response rating [5, 22] | Sugarbeets plant response rating [5, 23] | Cocklebur plant response rating [6, 17] | Plant response rating, Cocklebur [6, 19] | Plant response rating, Cocklebur [6, 20] | Cocklebur plant response rating [6, 22] | Cocklebur plant response rating [6, 23] | B. signalgrass plant response rating [7, 17] | Plant response rating, B. signalgrass [7, 19] | B. signalgrass plant response rating [7, 23] | S. Flatsedge plant response rating [9, 17] | S. Flatsedge plant response rating [9, 25] | S. Flatsedge plant response rating [9, 26] | Bedstraw plant response rating [10, 17] | Bedstraw plant response rating [10, 18] | Plant response rating, Bedstraw [10, 19] | Plant response rating, Bedstraw [10, 20] | Plant response rating, Bedstraw [10, 21] | Bedstraw plant response rating [10, 22] | Bedstraw plant response rating [10, 23] | Bedstraw plant response rating [10, 24] | Velvetleaf plant response rating [11, 17] | Velvetleaf plant response rating [11, 18] | Plant response rating, Velvetleaf [11, 19] | Plant response rating, Velvetleaf [11, 20] | Plant response rating, Velvetleaf [11, 21] | Velvetleaf plant response rating [11, 22] | Velvetleaf plant response rating [11, 23] | Nutsedge plant response rating [12, 17] | Nutsedge plant response rating [12, 18] | Plant response rating, Nutsedge [12, 19] | Plant response rating, Nutsedge [12, 20] | Plant response rating, Nutsedge [12, 21] | Nutsedge plant response rating [12, 22] | Nutsedge plant response rating [12, 23] | Nutsedge plant response rating [12, 24] | Wheat plant response rating [13, 17] | Wheat plant response rating [13, 18] | Plant response rating, Wheat [13, 19] | Plant response rating, Wheat [13, 20] | Plant response rating, Wheat [13, 21] | Wheat plant response rating [13, 22] | Wheat plant response rating [13, 23] | Blackgrass plant response rating [14, 17] | Blackgrass plant response rating [14, 23] | Corn plant response rating [15, 17] | Corn plant response rating [15, 18] | Plant response rating, Corn [15, 19] | Plant response rating, Corn [15, 20] | Plant response rating, Corn [15, 21] | Corn plant response rating [15, 23] | Wild oats plant response rating [16, 17] | Wild oats plant response rating [16, 18] | Plant response rating, Wild oats [16, 20] | Plant response rating, Wild oats [16, 21] | Wild oats plant response rating [16, 22] | Wild oats plant response rating [16, 23]
4: B. signalgrass plant response rating [7, 18] | B. signalgrass plant response rating [7, 24] | Blackgrass plant response rating [14, 18] | Plant response rating, Blackgrass [14, 20] | Corn plant response rating [15, 22]
2: Plant response rating, Crabgrass [8, 19] | Corn plant response rating [15, 24]
6: Crabgrass plant response rating [8, 23]
7: Plant response rating, Crabgrass [8, 20] | Crabgrass plant response rating [8, 22] | Blackgrass plant response rating [14, 24]
3: Soybean plant response rating [3, 17] | Soybean plant response rating [3, 18] | Soybean plant response rating [3, 23] | Cocklebur plant response rating [6, 24] | Crabgrass plant response rating [8, 17]
5: Plant response rating, B. signalgrass [7, 20]
9: Crabgrass plant response rating [8, 18] | Crabgrass plant response rating [8, 24] | Blackgrass plant response rating [14, 22]
